The source of these data is ChEMBL document CHEMBL4177767, “Discovery of N2-(4-Amino-cyclohexyl)-9-cyclopentyl- N6-(4-morpholin-4-ylmethyl-phenyl)- 9H-purine-2,6-diamine as a Potent FLT3 Kinase Inhibitor for Acute Myeloid Leukemia with FLT3 Mutations” (J Med Chem, 2018).

One data set has as its system K562. The experiment in a line: cells. Conditions: Homo sapiens, K562, 72 h.
The target in data set [1] is Receptor-type tyrosine-protein kinase FLT3 (Homo sapiens, UniProt P36888, ITD). The experiment in a line: biochemical. The class given is cell-based, Sf9.
Description: Inhibition of N-terminal GST/His6-fused recombinant human FLT3 (R571 to S993 residues) ITD mutant expressed in Sf9 insect cells using poly (Ala,Glu,Lys,Tyr) 6:2:5:1 hydrobromide as substrate in presence of [gamma-33P]ATP
In the next data set the test system is MV4-11. The experiment in a line: Growth inhibition of human MV4-11 cells after 72 hrs by calcein AM dye-based fluorescence assay. The class given is functional. Conditions: MV4-11, 72 h.
The next data set relates to Kasumi 1. The experiment in a line: cells. Conditions: Homo sapiens, Kasumi 1, 72 h.
The next data set relates to HCC827. The experiment in a line: cells. Conditions: Homo sapiens, HCC827, 72 h.
The nature of data set [2]: in vitro. Conditions: human, MRC5 cells.
In the next data set the test system is U-937. The experiment in a line: cells. As to conditions: Homo sapiens, U-937, 72 h.
The test system of the next data set is THP-1. The experiment in a line: cells. As to conditions: Homo sapiens, THP-1, 72 h.
The subject of a further data set is MOLM-13. The data set is described as follows: cells. As to conditions: Homo sapiens, MOLM-13, 72 h.
Data set [3] deals with Receptor-type tyrosine-protein kinase FLT3 (Homo sapiens, UniProt P36888, D835Y). The experiment in a line: biochemical. In kind it is cell-based, Sf9.
Description: Inhibition of N-terminal GST/His6-fused recombinant human FLT3 (R571 to S993 residues) D835Y mutant expressed in Sf9 insect cells using poly (Ala,Glu,Lys,Tyr) 6:2:5:1 hydrobromide as substrate in presence of [gamma-33P]ATP
Data set [4] in a line: in vitro. As to conditions: human, HUVEC.
Data set [5] can be described thus: in vitro. Conditions: human, BJ cells.
A further data set deals with MCF7. The data set is described as follows: cells. As to conditions: Homo sapiens, MCF7, 72 h.

The structures appear in SMILES notation.

Broadly, the GI50 is the concentration at which growth is held to half of that of the control. What is called IC50 is the concentration at which inhibition is half-maximal. Regarding `COc1ccc(CNc2nc(Nc3ccc(CN4CCOCC4)cc3)c3ncn(C4CCCC4)c3n2)cc1`, the results for the GI50 with K562 and with MV4-11 were 6.69 µM and 0.892 µM, respectively. For the same compound, the 50% inhibitory concentration (IC50) in data set [1] was 0.209 µM.

As for `CN1CCN(c2nc(Nc3ccc(Br)cc3)c3ncn(C4CCCCO4)c3n2)CC1` (configuration not stated), the 50% growth inhibitory concentration (GI50) in the data set with K562 was 7.13 µM; in the data set on MV4-11, 3.2 µM. The compound further had an IC50 in data set [1] of 4.21 µM.

Regarding `CC(O)CNc1nc(Nc2ccc(Br)cc2)c2ncn(Cc3ccccc3)c2n1` (configuration not stated), the GI50 in the data set with K562 is 9.45 µM; in the data set on MV4-11, above 4 µM. For the same compound, in data set [1], the IC50 was 9.85 µM.

`N[C@H]1CC[C@H](Nc2nc(Nc3ccc(Cl)cc3)c3ncn(C4CCCC4)c3n2)CC1`: the GI50 in the data set on K562 is 0.84 µM; in the data set with MV4-11, 0.021 µM. Besides, the half-inhibitory concentration (IC50) in data set [1] is 0.005 µM.

For the compound `NCCCCCNc1nc(Nc2ccc(CN3CCOCC3)cc2)c2ncn(C3CCCC3)c2n1`, the GI50 with Kasumi 1 was 1.28 µM; in the data set with HCC827 it was 1.12 µM; in the data set on U-937, 3.63 µM; in the data set with THP-1, 2.42 µM; in the data set with K562, 1.53 µM; with MOLM-13, 0.02 µM. Moreover, the GI50 in the data set with MCF7 was 2.12 µM; with MV4-11, 0.035 µM. Moreover, the GI50 at 72 h in “in vitro [2]” was found to be 5.88 µM; in the data set “in vitro [4]”, 14.2 µM; in the data set “in vitro [5]”, 11.2 µM. The IC50 was found to be 0.065 µM in [3] and 0.005 µM in data set [1].

For the compound `CC(O)CNc1nc(Nc2ccc(Br)cc2)c2ncn(C(C)C)c2n1` (configuration not stated), the GI50 was 17.8 µM in the data set with K562 and 1.5 µM in the data set with MV4-11. The compound also had an IC50 in [1] of 0.591 µM.

In the case of `N[C@H]1CC[C@H](Nc2nc(Nc3ccc(N4CCOCC4)nc3)c3ncn(C4CCCC4)c3n2)CC1`, the GI50 in the data set with K562 is 1.3 µM; in the data set on MV4-11 it was 0.004 µM. This compound also gave an IC50 in [1] of 0.004 µM.

Turning to `CC(O)CNc1nc(Nc2ccc(Br)cc2)c2ncn(C3CCCCO3)c2n1` (configuration not stated), the GI50 in the data set with K562 was 27.9 µM; in the data set with MV4-11, 2.43 µM. In addition, in [1], the IC50 turned out to be 1.14 µM.

Regarding `NCCCCNc1nc(Nc2ccc(N3CCOCC3)cc2)c2ncn(C3CCCC3)c2n1`, the 50% growth inhibitory concentration (GI50) worked out at 2.02 µM with Kasumi 1; 1.41 µM in the data set with HCC827; 4.07 µM in the data set with U-937; 6.91 µM in the data set with THP-1; 3.49 µM in the data set with K562; 0.017 µM with MOLM-13. Moreover, the GI50 is 3.25 µM in the data set on MCF7 and 0.011 µM with MV4-11. The GI50 at 72 h in the data set “in vitro [2]” came to 7.56 µM; in the data set “in vitro [4]” it was 8.06 µM; in the data set “in vitro [5]” it was 13 µM. The results for the half-inhibitory concentration (IC50) in data set [3] and in data set [1] were 0.007 µM and 0.004 µM, respectively.

As to `CN1CCN(c2nc(Nc3ccc(CN4CCOCC4)cc3)c3ncn(C4CCCC4)c3n2)CC1`, the GI50 in the data set on K562 is 2.75 µM; in the data set on MV4-11 it was 0.066 µM. In [1], this compound registered a half-maximal inhibitory concentration (IC50) of 0.053 µM.

`CC(O)CNc1nc(Nc2ccc(Cl)cc2)c2ncn(C3CCCC3)c2n1` (configuration not stated): the GI50 was 10.9 µM with K562 and 0.235 µM with MV4-11. The compound also displayed a half-maximal inhibitory concentration (IC50) in data set [1] of 1.72 µM.

Regarding `c1cc(N2CCOCC2)ncc1Nc1nc(N2CCOCC2)nc2c1ncn2C1CCCC1`, the figures for the GI50 in the data set with K562 and in the data set with MV4-11 were above 25 µM and 0.07 µM, respectively. The compound also came in with an IC50 in data set [1] of 0.071 µM.

`N[C@H]1CC[C@H](Nc2nc(Nc3ccc(Br)cc3)c3ncn(Cc4ccccc4)c3n2)CC1`: the GI50 is 3.07 µM in the data set with K562 and 2.29 µM with MV4-11. For the same compound, in [1], the IC50 worked out at 0.798 µM.

In the case of `OCCNc1nc(Nc2ccc(CN3CCOCC3)cc2)c2ncn(C3CCCC3)c2n1`, the results for the 50% growth inhibitory concentration (GI50) in the data set on K562 and in the data set on MV4-11 were 2 µM and 0.11 µM, respectively. The compound further yielded a half-inhibitory concentration (IC50) in data set [1] of 0.029 µM.

As to `Brc1ccc(Nc2nc(N3CCOCC3)nc3c2ncn3C2CCCCO2)cc1` (configuration not stated), the concentration for 50% growth inhibition (GI50) in the data set with K562 was 3.75 µM; in the data set with MV4-11 it was 3.88 µM. For the same compound, the IC50 in data set [1] was determined as 1.2 µM.

In the case of `CCN1CCN(c2ccc(Nc3nc(NCCCCN)nc4c3ncn4C3CCCC3)cc2)CC1`, the 50% growth inhibitory concentration (GI50) in the data set on Kasumi 1 was 2.07 µM; in the data set with HCC827, 0.976 µM; in the data set with U-937, 3.42 µM; in the data set with THP-1, 4.36 µM; with K562 it was 1.33 µM; in the data set with MOLM-13 it was 0.004 µM. In addition, the GI50 in the data set on MCF7 was 2.15 µM; in the data set with MV4-11, 0.012 µM. The GI50 at 72 h in the data set “in vitro [2]” stood at 10.3 µM; in the data set “in vitro [4]”, 11.4 µM; in the data set “in vitro [5]”, 15.4 µM. Also, the IC50 stood at 0.003 µM in data set [3] and 0.001 µM in [1].

For `CN1CCN(c2nc(Nc3ccc(Br)cc3)c3ncn(Cc4ccccc4)c3n2)CC1`, the GI50 was 3.8 µM in the data set with K562 and above 4 µM in the data set with MV4-11. The compound also registered an IC50 in data set [1] above 20 µM.

Consider `N[C@H]1CC[C@H](Nc2nc(Nc3ccc(Br)cc3)c3ncn(C4CCCCO4)c3n2)CC1` (some centres not stated), for which the concentration for 50% growth inhibition (GI50) in the data set with K562 was 5.17 µM; in the data set on MV4-11 it was 0.181 µM. The IC50 in data set [1] turned out to be 0.07 µM.

For the compound `C[C@@H](CO)CNc1nc(Nc2ccc(Br)cc2)c2ncn(C3CCCC3)c2n1`, the GI50 was 7.63 µM in the data set with K562 and 1.31 µM with MV4-11. Further, the half-maximal inhibitory concentration (IC50) in data set [1] worked out at 0.281 µM.

Consider `CC(C)n1cnc2c(Nc3ccc(Br)cc3)nc(N[C@H]3CC[C@H](N)CC3)nc21`, for which the concentration for 50% growth inhibition (GI50) is 1.17 µM in the data set with K562 and 0.007 µM with MV4-11. For the same compound, half-maximal inhibition in data set [1] (IC50) was put at 0.01 µM.

As to `OCCCCNc1nc(Nc2ccc(CN3CCOCC3)cc2)c2ncn(C3CCCC3)c2n1`, the figures for the concentration for 50% growth inhibition (GI50) in the data set on K562 and with MV4-11 were 1.45 µM and 0.083 µM, respectively. The same compound returned an IC50 in data set [1] of 0.018 µM.

Turning to `NCCCCNc1nc(Nc2ccc(CN3CCOCC3)cc2)c2ncn(C3CCCC3)c2n1`, the 50% growth inhibitory concentration (GI50) is 2.24 µM in the data set with Kasumi 1; 1.66 µM in the data set on HCC827; 1.34 µM with U-937; 3.74 µM in the data set on THP-1; 2.1 µM with K562; 0.019 µM with MOLM-13. Also, the figures for the GI50 in the data set with MCF7 and with MV4-11 were 2.1 µM and 0.011 µM, respectively. Besides, the GI50 at 72 h in the data set “in vitro [2]” amounted to 3.88 µM; in “in vitro [4]”, 6.27 µM; in “in vitro [5]” it was 10.4 µM. Besides, the IC50 in data set [3] came out at 0.005 µM; in [1], 0.001 µM.

As for `CC(O)CNc1nc(Nc2ccc(Br)cc2)c2ncn(C3CCCC3)c2n1` (configuration not stated), the GI50 in the data set with K562 was above 25 µM; in the data set on MV4-11, 0.444 µM. For the same compound, the midpoint of inhibition in [1], the IC50, lay at 0.628 µM.

As for `N[C@H]1CC[C@H](Nc2nc(Nc3ccc(N4CCN(Cc5ccccc5)CC4)cc3)c3ncn(C4CCCC4)c3n2)CC1`, the figures for the concentration for 50% growth inhibition (GI50) in the data set on K562 and with MV4-11 were 0.7 µM and 0.017 µM, respectively. The compound also yielded a 50% inhibitory concentration (IC50) in [1] of 0.006 µM.

Regarding `c1cc(Nc2nc(N3CCOCC3)nc3c2ncn3C2CCCC2)ccc1CN1CCOCC1`, the GI50 is 4.47 µM in the data set with K562 and 0.061 µM in the data set with MV4-11. In [1], the concentration for half-maximal inhibition (IC50) was 0.019 µM.

For `Brc1ccc(Nc2nc(N3CCOCC3)nc3c2ncn3Cc2ccccc2)cc1`, the 50% growth inhibitory concentration (GI50) was above 12.5 µM with K562 and above 4 µM with MV4-11. In addition, the IC50 in data set [1] was above 20 µM.

In the case of `OCCCNc1nc(Nc2ccc(CN3CCOCC3)cc2)c2ncn(C3CCCC3)c2n1`, the GI50 in the data set on K562 is 2.35 µM; in the data set on MV4-11 it was 0.157 µM. This compound displayed an IC50 in data set [1] of 0.047 µM.

With `NCCCCCCNc1nc(Nc2ccc(CN3CCOCC3)cc2)c2ncn(C3CCCC3)c2n1`, the GI50 in the data set with Kasumi 1 amounted to 1.02 µM; in the data set on HCC827, 2.25 µM; in the data set with U-937, 2.92 µM; with THP-1 it was 3.59 µM; in the data set on K562, 3.79 µM; in the data set with MOLM-13 it was 0.054 µM. Further, the values for the GI50 with MCF7 and in the data set with MV4-11 were 5 µM and 0.086 µM, respectively. Moreover, the GI50 at 72 h in “in vitro [2]” amounted to 4.09 µM; in the data set “in vitro [4]” it was 10.3 µM; in “in vitro [5]” it was 7.27 µM. Moreover, the IC50 in data set [3] turned out to be 0.069 µM; in [1], 0.01 µM.

For `c1cc(Nc2nc(N3CCCCC3)nc3c2ncn3C2CCCC2)ccc1CN1CCOCC1`, the GI50 with K562 was 11 µM; in the data set with MV4-11, 0.701 µM. In data set [1], this compound displayed an IC50 of 0.05 µM.
